This note sets out measurements from PubChem BioAssay (NCI).

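Cultured in 96-well plates, cells were exposed to test compound for 48 hours across five concentrations. GI50 is the concentration that inhibits growth by half. The concentration for full growth arrest is given as TGI.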

Some test systems named below: NCI/ADR-RES ovarian; 786-0 renal; NCI-H226 lung; A498 renal; HT29 colon; SNB-19 CNS; UACC-257 melanoma; SK-MEL-2 melanoma; HOP-92 NSCLC; OVCAR-4 ovarian.
Holding throughout (assay): growth of human tumour cells (NCI), 48 h

As to `CCc1ccc2nccc(NCCCN(C)C)c2c1[N+](=O)[O-]`, the TGI with NCI/ADR-RES ovarian, with 786-0 renal, in the assay with NCI-H226 lung, with A498 renal, in the assay with HT29 colon and in the assay with SNB-19 CNS was above 100 µM in each case. The TGI was 81.3 µM with UACC-257 melanoma, above 100 µM in the assay on SK-MEL-2 melanoma, above 100 µM in the assay on HOP-92 NSCLC and above 100 µM with OVCAR-4 ovarian.

For the molecule `CCOC(=O)C(C(=O)OCC)C(=O)c1ccccc1C(=O)c1ccccc1`, the TGI in the assay on NCI/ADR-RES ovarian, in the assay with 786-0 renal, in the assay on NCI-H226 lung, in the assay with A498 renal, with HT29 colon and in the assay on SNB-19 CNS was above 100 µM throughout. The TGI in the assay with UACC-257 melanoma, in the assay on SK-MEL-2 melanoma, in the assay on HOP-92 NSCLC and with OVCAR-4 ovarian was above 100 µM throughout.

Take `Cc1ccc2nc(-c3ccc(N)c4ccccc34)[nH]c2c1`: the GI50 in the assay with NCI/ADR-RES ovarian is 0.0835 µM; in the assay with 786-0 renal, 0.161 µM; in the assay on NCI-H226 lung it was 0.751 µM; in the assay with A498 renal it was 0.0953 µM; in the assay on HT29 colon, 0.361 µM; in the assay on SNB-19 CNS, 0.721 µM. Further, the GI50 is 9.5 µM in the assay with UACC-257 melanoma, 0.209 µM in the assay with SK-MEL-2 melanoma, 2.62 µM in the assay with HOP-92 NSCLC and 8.58 µM in the assay with OVCAR-4 ovarian. For the same molecule, the TGI in the assay with NCI/ADR-RES ovarian was 3.53 µM; in the assay with 786-0 renal it was 20.9 µM; in the assay with NCI-H226 lung it was 32.1 µM; in the assay with A498 renal it was 16.7 µM; in the assay with SNB-19 CNS it was above 44.7 µM; in the assay with UACC-257 melanoma, 34.5 µM. Besides, the TGI with SK-MEL-2 melanoma is 24.9 µM; in the assay with HOP-92 NSCLC, 49.1 µM; with OVCAR-4 ovarian it was above 100 µM.

On to `C=C1C(OC/C=C/COC2O[C@@H]3O[C@@]4(C)CC[C@H]5[C@H](C)CC[C@@H](C2=C)[C@@]35OO4)O[C@@H]2O[C@@]3(C)CC[C@H]4[C@H](C)CC[C@@H]1[C@@]24OO3` (some centres undefined), for which the GI50 with NCI/ADR-RES ovarian was 0.203 µM; with 786-0 renal, 0.578 µM; with NCI-H226 lung, 4.32 µM; with A498 renal, 26 µM; in the assay with HT29 colon, 0.0438 µM; in the assay with SNB-19 CNS it was 30.8 µM. In addition, the GI50 with UACC-257 melanoma was 4.96 µM; with SK-MEL-2 melanoma it was 16 µM; with HOP-92 NSCLC, 1.14 µM; with OVCAR-4 ovarian, 0.741 µM. Also, the TGI with NCI/ADR-RES ovarian was 18.1 µM; in the assay with 786-0 renal, 18.7 µM; with NCI-H226 lung, 33.5 µM; in the assay on A498 renal it was above 100 µM; with HT29 colon, above 49.2 µM; in the assay on SNB-19 CNS, above 100 µM. Further, the TGI in the assay with UACC-257 melanoma is 36 µM; in the assay on SK-MEL-2 melanoma, above 100 µM; with HOP-92 NSCLC, 36.3 µM; in the assay on OVCAR-4 ovarian, 26.2 µM.

`COc1cccc(N=N/C(=N\NC(=O)c2cc(Br)ccc2O)c2ccc(N(CCC#N)CCC#N)cc2OC)c1`: the GI50 in the assay on NCI/ADR-RES ovarian is 120 µg/mL; in the assay with 786-0 renal, 79.2 µg/mL; with NCI-H226 lung, 22 µg/mL; in the assay with A498 renal, 150 µg/mL; in the assay on HT29 colon it was 30 µg/mL; in the assay on SNB-19 CNS it was 68.9 µg/mL. In addition, the GI50 in the assay with UACC-257 melanoma is 87.8 µg/mL; in the assay with SK-MEL-2 melanoma, 47.9 µg/mL; in the assay with HOP-92 NSCLC it was 116 µg/mL; with OVCAR-4 ovarian, 17.5 µg/mL. For the same molecule, the TGI is above 150 µg/mL in the assay on NCI/ADR-RES ovarian; above 150 µg/mL in the assay with 786-0 renal; 79.7 µg/mL with NCI-H226 lung; above 150 µg/mL with A498 renal; above 150 µg/mL in the assay on HT29 colon; above 150 µg/mL in the assay with SNB-19 CNS. In addition, the TGI is above 150 µg/mL with UACC-257 melanoma, above 150 µg/mL in the assay with SK-MEL-2 melanoma, above 150 µg/mL with HOP-92 NSCLC and 60.9 µg/mL with OVCAR-4 ovarian.

Consider `CCN(CC)CCn1c2ccc(OC)cc2c2sc3cc(OC)ccc3c(=O)c21`, for which the GI50 is 1.24 µM in the assay on NCI/ADR-RES ovarian; 1.59 µM in the assay with 786-0 renal; 2.46 µM in the assay on NCI-H226 lung; 1.12 µM in the assay on A498 renal; 1.51 µM in the assay on HT29 colon; 2.43 µM with SNB-19 CNS. The GI50 was 1.92 µM in the assay on UACC-257 melanoma, 2.1 µM in the assay on SK-MEL-2 melanoma, 1.13 µM in the assay on HOP-92 NSCLC and 1.84 µM with OVCAR-4 ovarian. Besides, the TGI in the assay on NCI/ADR-RES ovarian is 3.6 µM; in the assay on 786-0 renal, 3.23 µM; in the assay with NCI-H226 lung, 7.49 µM; in the assay on A498 renal, 2.35 µM; in the assay on HT29 colon, 9.12 µM; with SNB-19 CNS it was 10 µM. Besides, the TGI with UACC-257 melanoma came out at 3.94 µM; in the assay with SK-MEL-2 melanoma it was 4.68 µM; in the assay on HOP-92 NSCLC it was 2.75 µM; in the assay on OVCAR-4 ovarian, 4.88 µM.

`COC(=O)[C@]12CC[C@@H](C)[C@H](C)[C@@H]1C1=CC[C@@H]3[C@@]4(C)C(C=O)=C[C@@](C)(COS(C)(=O)=O)C4[C@H](O)C[C@@]3(C)[C@]1(C)CC2` (some centres undefined): the GI50 is 2.03 µM with NCI/ADR-RES ovarian; 1.79 µM with 786-0 renal; 2.88 µM in the assay with NCI-H226 lung; 3.74 µM in the assay on A498 renal; 1.64 µM in the assay on HT29 colon; 2.47 µM in the assay on SNB-19 CNS. Also, the GI50 in the assay with UACC-257 melanoma is 1.85 µM; in the assay with SK-MEL-2 melanoma, 2.06 µM; in the assay on HOP-92 NSCLC, 2.39 µM; in the assay on OVCAR-4 ovarian it was 1.84 µM. In addition, the TGI was 5.3 µM in the assay with NCI/ADR-RES ovarian; 3.58 µM in the assay on 786-0 renal; 7.31 µM in the assay on NCI-H226 lung; 16 µM with A498 renal; 3.5 µM in the assay on HT29 colon; 8.44 µM with SNB-19 CNS. The TGI in the assay with UACC-257 melanoma stood at 3.65 µM; in the assay with SK-MEL-2 melanoma, 5.03 µM; in the assay on HOP-92 NSCLC, 5.56 µM; in the assay with OVCAR-4 ovarian, 6.06 µM.

Consider `COc1ccc2c(c1)c(-c1ccc(-c3cn(C)c4ccc(OC)cc34)[nH]1)cn2C`, for which the GI50 is 3.39 µM in the assay on NCI/ADR-RES ovarian; 12.2 µM in the assay with 786-0 renal; 8.2 µM with NCI-H226 lung; 10.9 µM with A498 renal; 9.38 µM in the assay with HT29 colon; 3.34 µM in the assay on SNB-19 CNS. In addition, the GI50 with UACC-257 melanoma is 13.7 µM; in the assay with SK-MEL-2 melanoma it was 4 µM; in the assay on HOP-92 NSCLC, 2.58 µM; with OVCAR-4 ovarian it was 1.94 µM. In addition, the TGI in the assay with NCI/ADR-RES ovarian is 20 µM; in the assay with 786-0 renal, 36.1 µM; in the assay on NCI-H226 lung, 22.2 µM; with A498 renal, 49.1 µM; in the assay with HT29 colon, 42 µM; in the assay with SNB-19 CNS it was 14.4 µM. In addition, the TGI with UACC-257 melanoma came out at 38.7 µM; in the assay on SK-MEL-2 melanoma, 22.2 µM; in the assay on HOP-92 NSCLC, 7.21 µM; in the assay on OVCAR-4 ovarian, 4.01 µM.
